The source of these data is US20200316062A1, “COMBINATIONS COMPRISING HISTONE DEACETYLASE INHIBITORS” (Karus Therapeutics Limited, priority 2016, published 2020).

A value given as a limit tells only on which side of the number the result lay.

Data set [1] in a line: Clinical signs and weight in the tumour growth delay study.
Description: (§1) Male SCID mice were subcutaneously implanted with RPM18226 multiple myeloma cells. Once tumours were established (volume of ˜130 mm) treatment was commenced.
(§2) Animals were housed in IVC cages (5 per cage) with individual mice identified by tail mark. All animals were allowed free access to a standard certified commercial diet and sanitised water during the study.
(§3) RPMI cells (1×10^7 in matrigel) were implanted subcutaneously into the rear dorsum of male SCID mice using a 25-gauge needle. When tumours were 100-150 mm^3 animals were randomly assigned to treatment groups.
The subject of a further data set is RPMI8226 tumours. Description: Tumour growth delay study in male SCID mice bearing RPMI8226 tumours. It counts as in vivo.
For a further data set, the target named is T1, Human HDAC1 (Homo sapiens, UniProt Q13547).
T1 construct: full length with C-terminal His-tag and C-terminal FLAG-tag; His-tag (C); FLAG-tag (C); made in house
T1 sequence (Q13547 whole entry): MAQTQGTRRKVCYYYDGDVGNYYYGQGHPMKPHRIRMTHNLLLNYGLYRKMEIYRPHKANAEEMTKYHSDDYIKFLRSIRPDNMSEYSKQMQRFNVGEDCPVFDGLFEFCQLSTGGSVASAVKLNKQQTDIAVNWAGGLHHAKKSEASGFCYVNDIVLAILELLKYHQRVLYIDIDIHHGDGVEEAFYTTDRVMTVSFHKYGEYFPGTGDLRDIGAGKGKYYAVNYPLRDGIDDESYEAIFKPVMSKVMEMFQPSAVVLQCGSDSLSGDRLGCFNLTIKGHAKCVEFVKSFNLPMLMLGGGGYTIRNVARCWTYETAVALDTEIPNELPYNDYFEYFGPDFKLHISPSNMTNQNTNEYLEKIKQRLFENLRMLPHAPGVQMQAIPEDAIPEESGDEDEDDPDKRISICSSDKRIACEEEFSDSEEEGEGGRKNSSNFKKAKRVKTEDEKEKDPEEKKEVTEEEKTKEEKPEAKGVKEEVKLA
Description: HDAC biochemical assay, acetylated AMC-labeled peptide substrate. To be noted: read-out: IC50 (nM) HDAC 1.

The target of a further data set is T2, Recombinant human HDAC6 (Homo sapiens, UniProt Q9UBN7).
T2 construct: full length, MW=159 kDa; GST (N); made in house; host or cells: Sf9 insect cells (baculovirus)
T2 sequence (Q9UBN7 1-1215): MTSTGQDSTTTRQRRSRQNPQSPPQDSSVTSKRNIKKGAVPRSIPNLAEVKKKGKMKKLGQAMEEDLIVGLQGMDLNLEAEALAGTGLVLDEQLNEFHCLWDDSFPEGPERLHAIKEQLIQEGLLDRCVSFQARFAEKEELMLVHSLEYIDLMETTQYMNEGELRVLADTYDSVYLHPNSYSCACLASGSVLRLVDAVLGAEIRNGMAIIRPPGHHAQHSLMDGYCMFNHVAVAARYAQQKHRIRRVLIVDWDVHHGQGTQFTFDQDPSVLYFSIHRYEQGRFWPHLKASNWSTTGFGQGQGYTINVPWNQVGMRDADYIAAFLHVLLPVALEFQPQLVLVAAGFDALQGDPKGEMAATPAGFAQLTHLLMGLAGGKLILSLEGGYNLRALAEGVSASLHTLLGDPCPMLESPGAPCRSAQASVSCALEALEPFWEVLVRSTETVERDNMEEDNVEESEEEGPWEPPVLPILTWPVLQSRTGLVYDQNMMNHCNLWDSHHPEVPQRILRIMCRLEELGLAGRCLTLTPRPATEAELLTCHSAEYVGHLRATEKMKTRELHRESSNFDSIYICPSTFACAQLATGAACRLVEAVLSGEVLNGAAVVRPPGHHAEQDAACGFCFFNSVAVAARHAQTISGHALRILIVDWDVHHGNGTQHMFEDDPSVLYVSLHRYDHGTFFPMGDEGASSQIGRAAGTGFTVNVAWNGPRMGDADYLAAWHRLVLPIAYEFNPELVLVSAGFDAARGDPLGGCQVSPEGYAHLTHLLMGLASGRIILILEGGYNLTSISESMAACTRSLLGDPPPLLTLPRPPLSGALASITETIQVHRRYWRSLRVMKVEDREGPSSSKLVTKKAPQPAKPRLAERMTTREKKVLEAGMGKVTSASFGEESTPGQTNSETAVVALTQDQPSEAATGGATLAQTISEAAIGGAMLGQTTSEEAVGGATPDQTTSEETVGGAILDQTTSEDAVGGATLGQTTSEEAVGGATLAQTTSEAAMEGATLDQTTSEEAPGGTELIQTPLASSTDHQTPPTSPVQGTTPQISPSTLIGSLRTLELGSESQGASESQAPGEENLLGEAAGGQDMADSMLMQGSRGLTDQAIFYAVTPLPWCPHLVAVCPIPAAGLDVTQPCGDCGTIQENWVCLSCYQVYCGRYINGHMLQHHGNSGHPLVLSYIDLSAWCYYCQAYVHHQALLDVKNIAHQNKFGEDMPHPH
The data set is described as above. To be noted: read-out: IC50 (nM) HDAC 6.

Another data set has as its system acetylated tubulin. Description: Western blot analysis of tumour tissue. It counts as in vivo, male SCID mice. To be noted: tumour tissue removed from treated animals.
For data set [2], the system named is PD-L1-expressing HT29 colorectal adenocarcinoma cells, primary stromal fibroblasts and PBMCs. Description: Tumour microenvironment (TME) model system, study KRS018-01-b (DiscoverX). The data set is classed as cell-based. To be noted: 2.5 to 10 μM; SAg stimulation 48 h; dose-dependent. As to the method: Test compounds dissolved in DMSO were profiled in a commercially-available tumour microenvironment (TME) model system consisting of PD-L1-expressing HT29 colorectal adenocarcinoma cells, primary stromal fibroblasts and PBMCs in which immune cel responses are suppressed by the presence of the cancer cells. Co-cultured cells were exposed to 2.5, 5, 10, 20 μM of test compound or DMSO as a control and stimulated with SAg for 48 h. The activity profile in the co-culture system was determined using ELISA endpoint assays to detect modulation of protein markers relevant to immune tolerance, inflammation, angiogenesis and matrix remodelling, and sulforhodamine B (SRB) and alamar blue assays to measure the viability of adherent colorectal adenocarcinoma cells and fibroblasts, and PBMCs, respectively.

Where [3] appears, read: Group 2: Bortezomib 0.5 mg/kg i.v. twice weekly.

Description for Human HDAC1: Activity against all zinc-dependent HDACs 1 to 11 was assessed by using an acetylated AMC-labeled peptide substrate. […] All assays were based on the AMC-labeled substrate and developer combination.
(§4) The protocol involved a two-step reaction: first, the substrate with the acetylated lysine side chain is incubated with a sample containing HDAC activity, to produce the deacetylated products, which are then digested in the second step by the addition of developer to produce the fluorescent signal proportional to the amount of deacetylated substrates.
Human HDAC1 (GenBank Accession No. NM_004964), full length with C-terminal His-tag and C-terminal FLAG-tag, MW=56 kDa, expressed in baculovirus expression system.
(§5) Before use, 1 mg/mL BSA and DMSO are added.
Incubate for 2 hours at 30° C.
HDAC1: 0.3 ng/ul HDAC1 and 50 μM HDAC substrate are in the reaction buffer with 1% DMSO final. Incubate for 1 hour at 30° C.
(§6) Stage 1: Deacetylation of substrate by incubation of HDAC enzymes with compounds
(§7) Stage 2: Development by addition of Developer to digest the deacetylated substrate, and generate the fluorescent color; Detection: 360/460 Ex/Em
Description for RPMI8226 tumours: as §1, §2, §3
Description for Recombinant human HDAC6: Activity against all zinc-dependent HDACs 1 to 11 was assessed by using an acetylated AMC-labeled peptide substrate. The substrate RHKK(Ac)AMC was used for HDAC1, 2, 3, 6, 10 and 11; for HDAC8, the substrate used was RHKAcKAc. […] All assays were based on the AMC-labeled substrate and developer combination.
as §4
Recombinant human HDAC6 (GenBank Accession No. BC069243), full length, MW=159 kDa, was expressed by baculovirus in Sf9 insect cells using an N-terminal GST tag.
as §5
Incubate for 2 hours at 30° C.
HDAC6: 0.3 ng/ul HDAC6 and 50 μM HDAC substrate are in the reaction buffer with 1% DMSO final. Incubate for 1 hours at 30° C.
as §6, §7

Take `CC(C)C[C@H](NC(=O)[C@H](Cc1ccccc1)NC(=O)c1cnccn1)B(O)O` [Bortezomib]: the “Group mean at day 26 (weight, clinical signs)” value in data set [1] (setting [3]) is given as 98.5. Moreover, in the data set with RPMI8226 tumours (setting [3]), the “% T/C value versus vehicle” value turned out to be 67.8% and the Mean tumour volume, Group mean at day 19 is 984 mm³.
As a reminder, the IC50 is the point on the concentration scale where inhibition reaches its midpoint. With `CNc1cc(-c2ccnc(N(Cc3ccc(C(=O)NO)cc3)c3cnccn3)c2)ccn1` [Example TT, N-hydroxy-4-({[2′-(methylamino)-[4,4′-bipyridine]-2-yl](pyrazin-2-yl)amino}methyl)benzamide], the IC50 on Human HDAC1 is 1000 to 10000 nM; on Recombinant human HDAC6, ≤ 500 nM.
Regarding `O=C(NO)c1ccc(CN(c2cnccn2)c2cnccn2)cc1` [Example GG, 4-{[Bis(pyrazin-2-yl)amino]methyl}-N-hydroxybenzamide], the “expression of acetylated tubulin in tumour tissue” value in the data set with acetylated tubulin is “increased expression”. In addition, the “weight change during the study” value in data set [1] (bortezomib combinations) is recorded as “no significant weight change”. The “levels of secreted granzyme-B, IFNγ, IL-10, IL-17A, IL-2, IL-6 and TNFα” value in data set [2] was “increased”. Moreover, the control of tumour result in the data set with RPMI8226 tumours (Group 4 and 5 (with bortezomib), after 8 days of treatment) is “significant control of tumour”.
`O=C(NO)c1ccc(CN(c2cnccn2)c2cc(-c3ccncc3)ccn2)cc1` [Example UU, 4-[({[4,4′-bipyridine]-2-yl}(pyrazin-2-yl)amino)methyl]-N-hydroxybenzamide]: the IC50 was 1000 to 10000 nM at Human HDAC1 and ≤ 500 nM at Recombinant human HDAC6.
